From PMC6964506 (ACS Omega, 2019)

Tests used:
[1] = tested on: A375 cells; test: Tumorosphere viability, drug sensitivity score; type: cell-based; settings: B-RafV600E mutant A375 spheroids, 72 h, 0 to 20 μM
[2] = tested on: K-RasG12V; test: K-Ras nanoclustering-FRET; type: cell-based; settings: HEK cells, 24 h; for dose-dependent effect on K-RasG12V nanoclustering-FRET: various concentrations, compared with 24 and 25
[3] = tested on: H-RasG12V; test: H-Ras nanoclustering-FRET; type: cell-based; settings: HEK cells, 5 μM (FTI-277 0.2 μM), 24 h
[4] = tested on: NCI-H358 cells; test: Tumorosphere viability, drug sensitivity score; type: cell-based; settings: NCI-H358 tumorospheres, 72 h, 0 to 20 μM
[5] = biological target: PDE6D/avi-K-RasFMe (Homo sapiens, UniProt O43924); test: SPR inhibition of PDE6D binding to captured avi-K-RasFMe
[6] = biological target: K-RasG12V/PDE6D interaction (Homo sapiens, UniProt O43924); test: PDE6D/K-Ras interaction by FLIM-FRET in HEK cells; type: cell-based; settings: 5 μM, 24 h
[7] = tested on: MDA-MB-231 cells; test: Mammosphere formation assay; type: cell-based; settings: MDA-MB-231, 6 days suspension then 72 h with 5 μM
[8] = tested on: Hs 578T cells; test: Mammosphere formation assay; type: cell-based; settings: 6 days suspension then 72 h with 5 μM

Sequence of PDE6D/avi-K-RasFMe (O43924 whole entry): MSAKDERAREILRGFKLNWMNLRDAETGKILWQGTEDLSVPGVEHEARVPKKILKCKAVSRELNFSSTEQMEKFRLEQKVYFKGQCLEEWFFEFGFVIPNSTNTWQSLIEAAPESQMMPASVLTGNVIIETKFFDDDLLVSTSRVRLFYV
Sequence of K-RasG12V/PDE6D interaction (O43924 whole entry): as above

Row | Compound | IC50 [5] [µM] | Kd [5] [µM] | activity on spheroid viability (DSS) [1] | effect on H-RasG12V nanoclustering-FRET [3] | effect on K-RasG12V/PDE6D FLIM-FRET [6] | effect on mammosphere formation (SFE) [8] | also measured
1 | C=CC(=O)N1CCN(c2ncnc3c(F)c(-c4c(O)cccc4F)c(Cl)cc23)CC1 [ARS-1620] | – | – | inactive | – | – | – | –
2 | c1ccc(Cn2c(-c3ccc(OC[C@H](C4CCNCC4)n4c(-c5ccccc5)nc5ccccc54)cc3)nc3ccccc32)cc1 [Deltarasin, reference compound] | – | – | equally high activity in both cell lines | reduced FRET of both Ras isoforms about equally | – | – | effect on K-RasG12V nanoclustering-FRET ([2]; 5 μM (FTI-277 0.2 μM)): reduced FRET of both Ras isoforms about equally; IC50 ([2]; read-out: IC50 K-Ras nanoclustering-FRET (mean ± SEM), n = 3): 0.7 ± 0.4 µM; activity on spheroid viability (DSS) [4]: equally high activity in both cell lines
3 | CCOC(=O)C(C)(COP(=O)(OC)OCC1CCC(CNC(=O)c2cc3ccccc3oc2=O)CC1)C(=O)CSC(C)=O (stereo not drawn) [compound 17] | 6.7 ± 0.1 | 4.97 ± 0.07 | – | – | lacked in cellulo activity | no significant effect | effect on mammosphere formation (SFE) [7]: no significant effect
4 | COC(=O)c1ccc(C(=O)NCCCCCCOP(=O)(OC)OCC(C)(C)C(=O)CSC(C)=O)cc1N (stereo not drawn) [compound 23] | – | – | inactive | No effect | performed as well as 15 and somewhat better than 22 | but not H-RasG12V-mutant Hs 578T-mammosphere formation | dose-dependent effect on K-RasG12V nanoclustering-FRET [2]: significant dose-dependent reduction
5 | COC(=O)c1ccc(C(=O)NCCCCOP(=O)(OC)OCC(C)(C)C(=O)CSC(C)=O)cc1N (stereo not drawn) [compound 25] | – | – | – | – | performed better than 24 | inactive | effect on mammosphere formation (SFE) [7]: inactive

Further lines, with some results ahead:

Row | IC50 [5] [µM] | Kd [5] [µM] | Compound | activity on spheroid viability (DSS) [1] | effect on H-RasG12V nanoclustering-FRET [3] | effect on K-RasG12V/PDE6D FLIM-FRET [6] | effect on mammosphere formation (SFE) [8] | also measured
6 | 18.9 ± 0.2 | 14.1 ± 0.2 | O=C(NCCCCCCO)c1cc2ccccc2oc1=O [compound 14] | – | – | did not block the interaction | – | –
7 | 10.27 ± 0.03 | 7.62 ± 0.02 | CCOC(=O)C(C)(COP(=O)(OC)OCCCCCCNC(=O)c1ccc(C(=O)OC)c(N)c1)C(=O)CSC(C)=O (stereo not drawn) [compound 22] | – | No effect | – | – | fold lower affinity than analogue 23 ([5]; SPR): 2.6 fold; dose-dependent effect on K-RasG12V nanoclustering-FRET [2]: significant dose-dependent reduction
